From patent publication US12643875B2, “Antibacterial compounds” (The Penn State Research Foundation, priority 2020, dated 2026)
Converted amounts (≈) assume the structure as drawn. Read-outs that look alike come from different tables or passages of the source.

How the values were obtained:
bacteria = test: Bacterial growth inhibition, broth microdilution (CLSI M07-A10); format: cell-based; details: for IC50: growth inhibition
From the text: Assay: Broth microdilution by the method of: Clinical and Laboratory Standards Institute, Ed., Methods for dilution antimicrobial susceptibility tests for bacteria that grow aerobically: M07-A10; approved standard (Committee for Clinical Laboratory Standards, Wayne, PA, 10. ed., 2015), Documents/Clinical and Laboratory Standards Institute.

CYP (isoform not given) = test: HLM CYP inhibition; details: human, human liver microsomes
Serum binding = format: in vitro ADME
[1] = test system: HUVEC (Human Umbilical Vein Endothelial Cells); test: Cytotoxicity, propidium iodide fluorescence, HuVEC cells; format: cell-based; set-up: key: % cytotoxicity relative to positive control (100% cell lysis); details: 24 h, relative to positive control (100% cell lysis)
Method: (§1) Assay: HUVEC (Human Umbilical Vein Endothelial Cells) and HeLa (cervical cancer cells) were seeded into 96-well culture plates at a density of 1.5×10^5 cells/ml in endothelial cell or DMEM growth medium, supplemented with 10% fetal bovine serum and no antibiotic. Cells were cultured for 24 h before assay setup. Compounds were diluted in the corresponding growth medium and tested in triplicate at 10× and 20× the minimum bacterial growth inhibitory concentrations. Growth media in the 96-well plate was aspirated off and replaced with media containing the test compounds or DMSO (0.5%, vol/vol). The plates were incubated at 37° C. in a 5% CO2 incubator for 24 h. A positive control sample was prepared by replacing media in designated wells with a solution containing a cell lysis reagent. Propidium iodide was then added at 5 μM/well and the plate was incubated for 10 minutes at room temperature. Fluorescence was then recorded using a SpectraMax i3 (Molecular Devices) at λex 535 nm/λem 617 nm. Cytotoxicity was determined by quantifying the fluorescence values for each compound relative to the positive control (100% cell lysis). For selected exemplified compounds, cytotoxicity against HeLa and HuVEC cells was measured at 10× and 20×MIC.

Plasma binding = format: in vitro ADME; details: for free compound: serum and plasma binding
[2] = test system: σ^E-mediated transcription; test: σ^E-mediated transcription inhibition, E. coli reporter assay; format: cell-based; details: Escherichia coli
Method: The selected exemplified compounds were tested for inhibition of σ^E-mediated transcription using an E. coli reporter assay according to the protocol described in U.S. Pat. No. 8,962,550, which is incorporated herein by reference.

[3] = test system: HeLa (cervical cancer cells); test: Cytotoxicity, propidium iodide fluorescence, HeLa cells; format: cell-based, Human; set-up: key: % cytotoxicity relative to positive control (100% cell lysis); details: 24 h, relative to positive control (100% cell lysis)
Method: as §1

[4] = Stability in human liver microsomes (intrinsic clearance)
CYP [5] = test system: CYP
[6] = Solubility in growth medium of the transcription assay; format: physicochemical; set-up: key: *: poor solubility in test medium
CYP [7] = test: HLM CYP inhibition

Cc1cc(F)ccc1-c1cccc(Nc2ccncc2)c1 [Compound 39744]
MIC (bacteria): 14 µg/mL (≈ 50.3 µM)

Cc1cc(F)ccc1-c1cccc(-c2cn(-c3ccncc3)nn2)c1 [Compound 39724]
IC50 (CYP (isoform not given)): 3.55 µM | Human Liver Microsomes Intrinsic Clearance (CLint): 0.37 mL/min/g liver | % serum binding (Serum binding): 94.6% | Cytotoxicity at 10× MIC HuVEC [1]: 16 | Cytotoxicity at 20× MIC HuVEC [1]: 19 | % plasma binding (Plasma binding): 99.5% | MIC (bacteria): 3.3 to 4.1 µg/mL (≈ 9.99 to 12.4 µM) | IC50 (bacteria): 1.6 to 2.3 µg/mL (≈ 4.84 to 6.96 µM) | IC50 [2]: 6.6 µg/mL (≈ 20 µM) | Cytotoxicity at 10× MIC HeLa [3]: 11 | Cytotoxicity at 20× MIC HeLa [3]: 14

Cc1cc(F)ccc1-c1cccc(NS(=O)(=O)c2ccccc2)n1 [Compound 39705]
MIC (bacteria): 34 µg/mL (≈ 99.3 µM) | IC50 (bacteria): 16 µg/mL (≈ 46.7 µM)

Cc1cc(F)ccc1-c1cc(Nc2ccccc2)ccn1 [Compound 39712]
MIC (bacteria): 21 µg/mL (≈ 75.5 µM)

Cc1cc(F)ccc1-c1cccc(NS(=O)(=O)c2cccc3c(N(C)C)cccc23)n1 [Compound 39713]
MIC (bacteria): 87 µg/mL (≈ 200 µM)

Cc1cc(F)ccc1-c1cccc(-c2cn(-c3cccc4ncccc34)nn2)c1 [Compound 39739]
MIC (bacteria): 38 µg/mL (≈ 99.9 µM)

Cc1cc(F)ccc1-c1cccc(Nc2ccc(N=[N+]=[N-])cc2)n1 [Compound 39714]
MIC (bacteria): 64 µg/mL (≈ 200 µM)

Cc1ncc2n1-c1ccc(Cl)cc1C(c1ccccc1F)=NC2 [Midazolam control, Midazolam]
Human Liver Microsomes Intrinsic Clearance (CLint) [4]: 9.04 mL/min/g liver

Cc1cc([N+](=O)[O-])ccc1-c1cccc(Nc2ccncc2)n1 [Compound 39709]
MIC (bacteria): 117 µg/mL (≈ 382 µM)

Cc1cc(F)ccc1-c1cccc(Nc2ccccc2)n1 [Compound 39704]
IC50 (CYP (isoform not given)): 13.5 µM | Human Liver Microsomes Intrinsic Clearance (CLint): 5.38 mL/min/g liver | % serum binding (Serum binding): 100% | Cytotoxicity at 10× MIC HuVEC [1]: 15 | Cytotoxicity at 20× MIC HuVEC [1]: 21 | % plasma binding (Plasma binding): 99.9% | free compound (Plasma binding): no detectable free compound | IC50 for CYP inhibition over the MIC (CYP [5]): more than 5 × | MIC (bacteria): 1.7 to 3.5 µg/mL (≈ 6.11 to 12.6 µM) | IC50 (bacteria): 0.9 to 2.8 µg/mL (≈ 3.23 to 10.1 µM) | IC50 [2]: 11 µg/mL (≈ 39.5 µM) | solubility in test medium [6]: * | Cytotoxicity at 10× MIC HeLa [3]: 11 | Cytotoxicity at 20× MIC HeLa [3]: 11

Cc1cc(F)ccc1-c1cccc(NC(=O)c2ccccc2)c1 [Compound 39731]
inhibition of CYP (CYP [7]): no detectable inhibition | IC50 (CYP (isoform not given)): > 33 µM | Human Liver Microsomes Intrinsic Clearance (CLint): 2.12 mL/min/g liver | % serum binding (Serum binding): 99.7% | Cytotoxicity at 10× MIC HuVEC [1]: 14 | Cytotoxicity at 20× MIC HuVEC [1]: 14 | % plasma binding (Plasma binding): 99.8% | MIC (bacteria): 7.6 µg/mL (≈ 24.9 µM) | IC50 (bacteria): 1.6 to 3.4 µg/mL (≈ 5.24 to 11.1 µM) | IC50 [2]: ~60 µg/mL (≈ 196 µM) | solubility in test medium [6]: * | Cytotoxicity at 10× MIC HeLa [3]: 8 | Cytotoxicity at 20× MIC HeLa [3]: 10

Cc1cc(F)ccc1-c1cccc(Nc2ccc(S(C)(=O)=O)cc2)c1 [Compound 39734]
MIC (bacteria): 28 µg/mL (≈ 78.8 µM) | IC50 (bacteria): 22 µg/mL (≈ 61.9 µM)

Cc1cc(F)ccc1-c1cccc(Nc2ccc([N+](=O)[O-])c3nonc23)n1 [Compound 39722]
MIC (bacteria): 73 µg/mL (≈ 200 µM)

Cc1cc(F)ccc1-c1cccc(-c2cn(C3CCSCC3)nn2)c1 [Compound 39735]
MIC (bacteria): 35 µg/mL (≈ 99 µM)

c1ccc(COc2ccc(-c3cccc(Nc4ccncc4)n3)cc2)cc1 [Compound 39718]
MIC (bacteria): 35 µg/mL (≈ 99 µM)

c1ccc(-c2cccc(Nc3ccncc3)n2)cc1 [Compound 39711]
MIC (bacteria): 6.2 µg/mL (≈ 25.1 µM) | IC50 (bacteria): 3.7 µg/mL (≈ 15 µM)

Cc1cc(F)ccc1-c1cc(NC(=O)c2ccco2)ccn1 [Compound 39717]
MIC (bacteria): 50 µg/mL (≈ 169 µM)

Cc1cc(F)ccc1-c1cccc(NC(=O)c2cccc(Cl)c2)c1 [Compound 39732]
MIC (bacteria): 8.5 µg/mL (≈ 25 µM) | IC50 (bacteria): 5.9 µg/mL (≈ 17.4 µM)

O=C(Nc1cccc(-c2ccccc2)c1)c1cccc(C(F)(F)F)c1 [Compound 39751]
inhibition of CYP (CYP [7]): no detectable inhibition | IC50 (CYP (isoform not given)): > 33 µM | Human Liver Microsomes Intrinsic Clearance (CLint): 4.35 mL/min/g liver | % serum binding (Serum binding): 99.9% | Cytotoxicity at 10× MIC HuVEC [1]: 17 | Cytotoxicity at 20× MIC HuVEC [1]: 14 | % plasma binding (Plasma binding): 99.9% | free compound (Plasma binding): no detectable free compound | MIC (bacteria): 8.5 µg/mL (≈ 24.9 µM) | IC50 (bacteria): 4.6 µg/mL (≈ 13.5 µM) | IC50 [2]: 4.3 µg/mL (≈ 12.6 µM) | Cytotoxicity at 10× MIC HeLa [3]: 9 | Cytotoxicity at 20× MIC HeLa [3]: 7

c1cc(Nc2ccncc2)nc(C2CCCCC2)c1 [Compound 39710]
MIC (bacteria): 51 µg/mL (≈ 201 µM)

Cc1cc(F)ccc1-c1cccc(Nc2ccncc2)n1 [Compound 2170]
MIC (bacteria): 14 µg/mL (≈ 50.1 µM) | IC50 (bacteria): 6.8 µg/mL (≈ 24.3 µM)

c1ccc(-c2cccc(-c3cn(-c4ccncc4)nn3)c2)cc1 [Compound 39748]
IC50 (CYP (isoform not given)): 1.48 µM | Human Liver Microsomes Intrinsic Clearance (CLint): 1.28 mL/min/g liver | % serum binding (Serum binding): 99.7% | Cytotoxicity at 10× MIC HuVEC [1]: 15 | Cytotoxicity at 20× MIC HuVEC [1]: 21 | % plasma binding (Plasma binding): 99.7% | MIC (bacteria): 7.6 µg/mL (≈ 25.5 µM) | IC50 (bacteria): 2.6 µg/mL (≈ 8.71 µM) | IC50 [2]: 2.6 µg/mL (≈ 8.71 µM) | Cytotoxicity at 10× MIC HeLa [3]: 14 | Cytotoxicity at 20× MIC HeLa [3]: 14

Cc1cc(F)ccc1-c1cccc(Nc2ccc(C#C[Si](C)(C)C)cc2)n1 [Compound 39715]
MIC (bacteria): 75 µg/mL (≈ 200 µM)

Cc1cc(F)ccc1-c1cccc(NC(=O)c2ccccc2)n1 [Compound 39721]
MIC (bacteria): 20 µg/mL (≈ 65.3 µM)

Cc1cc(F)ccc1-c1cccc(NC(=O)c2cccc(Cl)c2)n1 [Compound 39720]
Human Liver Microsomes Intrinsic Clearance (CLint): 1.51 mL/min/g liver | Cytotoxicity at 10× MIC HuVEC [1]: 10 | Cytotoxicity at 20× MIC HuVEC [1]: 10 | MIC (bacteria): 4.3 µg/mL (≈ 12.6 µM) | IC50 (bacteria): 2.4 µg/mL (≈ 7.04 µM) | IC50 [2]: ~34.1 µg/mL (≈ 100 µM) | solubility in test medium [6]: * | Cytotoxicity at 10× MIC HeLa [3]: 8 | Cytotoxicity at 20× MIC HeLa [3]: 8

Cc1cc(F)ccc1-c1ccc(-c2cn(-c3ccncc3)nn2)cc1 [Compound 39730]
MIC (bacteria): 66 µg/mL (≈ 200 µM)

Cc1cc(F)ccc1-c1cccc(NC(=O)c2ccco2)c1 [Compound 39733]
MIC (bacteria): 29 µg/mL (≈ 98.2 µM) | IC50 (bacteria): 16 µg/mL (≈ 54.2 µM)
